Measured values as given in patent US20260242824A1, “ONCOLYTIC VIRUSES TO TREAT BRAIN CANCER” (priority 2023, published 2026).

B1: Recombinant murine IL-11: recombinant murine IL-11 used to stimulate astrocytes at 50 ng/ml (protein, UniProt P47873 22-199, looked up)
Interleukin-11: PGPPAGSPRVSSDPRADLDSAVLLTRSLLADTRQLAAQMRDKFPADGDHSLDSLPTLAMSAGTLGSLQLPGVLTRLRVDLMSYLRHVQWLRRAGGPSLKTLEPELGALQARLERLLRRLQLLMSRLALPQAAPDQPVIPLGPPASAWGSIRAAHAILGGLHLTLDWAVRGLLLLKTRL

Legend:
[1] = test system: Tnfsf10 expression in astrocytes; test: Tnfsf10 mRNA (qPCR) in stimulated primary mouse astrocytes; assay type: cell-based
Method: Isolation, culture, and stimulation of primary mouse astrocytes. Primary murine astrocytes were isolated from neonatal brains as previously described. Briefly, wild-type mouse pups aged 1-3 days were cryoanesthetized and decapitated. Whole brains were extracted, and 2-3 brains pooled per culture. After centrifugation for 5 min at 500×g, tissues were resuspended in 5 mL pre-warmed 0.25% Trypsin-EDTA (Thermo Fisher Scientific, 25200-072) and incubated at 37° C. for 10 min, followed by addition of culture medium to stop the dissociation reaction, and mechanical disaggregation by strong pipetting. The suspension was then filtered through a 70 μm nylon strainer and centrifuged 5 min at 500×g. Finally, the suspension was seeded onto T75 flasks (Falcon, 353136) that were coated at room temperature for 10 min with poly-L-lysine (Sigma-Aldrich, P4707). Mixed glial cultures were grown for at least 10 days prior to enrichment of astrocytes per the following method. […]
For quantitative analysis of gene transcription from cultured cells cellular RNA was extracted by use of RNeasy Kit (Qiagen, 74004). […] Quantitative measurement of gene expression was performed by qPCR using Taqman Fast Universal PCR Master Mix (Life Technologies, 4367846), MicroAmp Optical 384 well plates (Thermo Fisher Scientific, 43-098-49) and a ViiA 7 Real-Time PCR System (Applied Biosciences). […]

[2] = test system: STAT3; settings: 2 μM in dimethyl sulfoxide; reported in ref [40]; cited from earlier work

| Molecule | TCM-induced expression of Tnfsf10 transcripts upon STAT inhibition ([1]; GL261 TCM-stimulated astrocytes, inhibitor 2 μM, vs vehicle) | effectiveness and cytotoxicity at the concentration used [2] | Tnfsf10 expression upon recombinant murine IL-11 alone ([1]; astrocytes, 50 ng/ml, levels comparable to GL261 TCM, vs control medium) |
| --- | --- | --- | --- |
| O=C(Nc1ccc([N+](=O)[O-])cc1Cl)c1cc(Cl)ccc1O [BAY2353, Niclosamide] | fully abrogated | effective but not cytotoxic |  |
| B1 |  |  | sufficient to induce Tnfsf10 expression |
